Measured values published in article PMC12136037, “Type II kinase inhibitors that target Parkinson’s disease–associated LRRK2” (Science Advances, 2025).

Columns and labels:
Test in all cases: DSF 100 kinase selectivity screen;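 further: compound tested at 20 µM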
Assay type in all cases: binding
[1] = target: T1, ~100 representative kinases (Homo sapiens, UniProt O14965); details: Protein STK6; DSF; average of three replicates
T1 construct: Recombinant protein kinase domains with a concentration of 2 μM
T1 sequence (O14965 1-403): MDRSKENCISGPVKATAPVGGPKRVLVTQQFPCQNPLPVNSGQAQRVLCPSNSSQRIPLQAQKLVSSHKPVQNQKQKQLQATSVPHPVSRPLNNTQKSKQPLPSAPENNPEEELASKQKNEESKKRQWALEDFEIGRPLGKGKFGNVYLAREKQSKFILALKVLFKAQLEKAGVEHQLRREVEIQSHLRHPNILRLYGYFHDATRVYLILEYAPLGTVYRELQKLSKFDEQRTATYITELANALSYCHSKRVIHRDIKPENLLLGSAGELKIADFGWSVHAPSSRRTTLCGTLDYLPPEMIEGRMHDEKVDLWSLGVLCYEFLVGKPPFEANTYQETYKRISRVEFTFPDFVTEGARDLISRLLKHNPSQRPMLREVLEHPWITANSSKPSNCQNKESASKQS
How it was run: (§1)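 Each kinase domain, at 2 μM, is mixed with 20 μM test compound and SYPRO Orange in Hepes (20 mM, pH 7.5) with 500 mM NaCl. Temperature is then raised at 3°C/min and fluorescence-monitored unfolding yields the melting temperature change, ΔTm in degrees Celsius.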

[2] = target: T2, ~100 representative kinases (Homo sapiens, UniProt O43293); details: Protein DAPK3; average of three replicates
T2 construct: Recombinant protein kinase domains with a concentration of 2 μM
How it was run: as §1

[3] = target: T3, ~100 representative kinases (Homo sapiens, UniProt O95747); details: protein OSR1; average of three replicates
T3 construct: Recombinant protein kinase domains with a concentration of 2 μM
How it was run: as §1

[4] = target: T4, ~100 representative kinases (Homo sapiens, UniProt P12931); details: Protein SRC; DSF; average of three replicates
T4 construct: Recombinant protein kinase domains with a concentration of 2 μM
T4 sequence (P12931 whole entry, the tested form may be a part): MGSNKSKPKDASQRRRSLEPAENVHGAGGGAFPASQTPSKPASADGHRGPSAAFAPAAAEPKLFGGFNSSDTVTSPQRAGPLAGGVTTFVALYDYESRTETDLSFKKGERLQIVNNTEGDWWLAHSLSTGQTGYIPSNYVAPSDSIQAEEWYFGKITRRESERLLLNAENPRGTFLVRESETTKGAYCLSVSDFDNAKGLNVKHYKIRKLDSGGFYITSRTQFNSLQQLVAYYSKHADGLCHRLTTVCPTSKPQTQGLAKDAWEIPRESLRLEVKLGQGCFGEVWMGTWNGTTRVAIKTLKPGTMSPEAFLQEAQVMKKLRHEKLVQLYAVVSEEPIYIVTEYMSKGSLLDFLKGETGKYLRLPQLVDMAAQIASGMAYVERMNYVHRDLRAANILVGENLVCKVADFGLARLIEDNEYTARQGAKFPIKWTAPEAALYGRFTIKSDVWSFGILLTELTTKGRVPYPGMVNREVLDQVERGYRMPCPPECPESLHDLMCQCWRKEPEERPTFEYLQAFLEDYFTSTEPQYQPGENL
How it was run: as §1

[5] = target: T5, ~100 representative kinases (Homo sapiens, UniProt P16083); details: protein NQO2; average of three replicates
T5 construct: Recombinant protein kinase domains with a concentration of 2 μM
T5 sequence (P16083 1-231): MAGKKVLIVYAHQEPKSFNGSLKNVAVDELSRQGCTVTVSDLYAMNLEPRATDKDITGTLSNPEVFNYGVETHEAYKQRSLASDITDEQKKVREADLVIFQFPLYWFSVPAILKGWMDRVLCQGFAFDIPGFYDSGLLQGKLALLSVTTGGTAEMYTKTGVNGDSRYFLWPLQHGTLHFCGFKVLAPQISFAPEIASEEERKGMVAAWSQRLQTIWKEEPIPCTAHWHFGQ
How it was run: as §1

[6] = target: T6, ~100 representative kinases (Homo sapiens, UniProt P17948); details: protein FLT1; average of three replicates
T6 construct: Recombinant protein kinase domains with a concentration of 2 μM
T6 sequence (P17948 27-1338): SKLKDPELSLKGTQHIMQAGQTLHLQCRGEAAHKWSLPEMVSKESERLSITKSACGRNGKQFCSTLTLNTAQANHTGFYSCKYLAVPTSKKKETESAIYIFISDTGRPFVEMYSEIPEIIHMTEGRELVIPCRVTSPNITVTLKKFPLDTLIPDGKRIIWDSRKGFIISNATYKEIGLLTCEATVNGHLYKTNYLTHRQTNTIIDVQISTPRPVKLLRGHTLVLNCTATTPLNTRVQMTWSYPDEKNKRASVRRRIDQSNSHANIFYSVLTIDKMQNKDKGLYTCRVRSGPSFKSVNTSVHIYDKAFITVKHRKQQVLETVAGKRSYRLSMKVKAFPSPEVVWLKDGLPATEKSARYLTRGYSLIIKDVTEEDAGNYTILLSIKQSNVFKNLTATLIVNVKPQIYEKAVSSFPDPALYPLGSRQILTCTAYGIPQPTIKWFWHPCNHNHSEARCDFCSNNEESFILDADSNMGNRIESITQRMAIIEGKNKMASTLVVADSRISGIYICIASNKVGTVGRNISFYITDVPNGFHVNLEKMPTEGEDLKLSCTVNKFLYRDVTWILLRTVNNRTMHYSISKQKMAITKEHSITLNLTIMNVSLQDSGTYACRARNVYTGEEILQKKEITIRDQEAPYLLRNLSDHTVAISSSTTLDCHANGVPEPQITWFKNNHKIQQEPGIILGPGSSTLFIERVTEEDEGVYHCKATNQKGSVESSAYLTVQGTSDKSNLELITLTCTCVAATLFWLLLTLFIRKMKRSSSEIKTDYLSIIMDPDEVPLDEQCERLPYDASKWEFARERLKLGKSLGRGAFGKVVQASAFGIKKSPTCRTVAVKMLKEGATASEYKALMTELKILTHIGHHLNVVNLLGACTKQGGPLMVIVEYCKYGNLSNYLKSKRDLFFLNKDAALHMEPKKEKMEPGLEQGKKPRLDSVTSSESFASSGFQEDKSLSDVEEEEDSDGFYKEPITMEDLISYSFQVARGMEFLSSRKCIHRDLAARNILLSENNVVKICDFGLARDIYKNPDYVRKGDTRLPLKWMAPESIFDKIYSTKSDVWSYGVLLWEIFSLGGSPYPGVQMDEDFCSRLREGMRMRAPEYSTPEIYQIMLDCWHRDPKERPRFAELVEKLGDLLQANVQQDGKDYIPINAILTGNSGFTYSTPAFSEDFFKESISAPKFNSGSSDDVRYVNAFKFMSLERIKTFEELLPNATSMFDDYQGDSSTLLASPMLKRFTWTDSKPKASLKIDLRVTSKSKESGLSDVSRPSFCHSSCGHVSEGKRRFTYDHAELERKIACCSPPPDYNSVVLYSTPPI
How it was run: as §1

[7] = target: T7, ~100 representative kinases (Homo sapiens, UniProt P21802); details: protein FGFR2; average of three replicates
T7 construct: Recombinant protein kinase domains with a concentration of 2 μM
How it was run: as §1

[8] = target: T8, ~100 representative kinases (Homo sapiens, UniProt Q09013); details: Protein DMPK1; average of three replicates
T8 construct: Recombinant protein kinase domains with a concentration of 2 μM
T8 sequence (Q09013 1-629): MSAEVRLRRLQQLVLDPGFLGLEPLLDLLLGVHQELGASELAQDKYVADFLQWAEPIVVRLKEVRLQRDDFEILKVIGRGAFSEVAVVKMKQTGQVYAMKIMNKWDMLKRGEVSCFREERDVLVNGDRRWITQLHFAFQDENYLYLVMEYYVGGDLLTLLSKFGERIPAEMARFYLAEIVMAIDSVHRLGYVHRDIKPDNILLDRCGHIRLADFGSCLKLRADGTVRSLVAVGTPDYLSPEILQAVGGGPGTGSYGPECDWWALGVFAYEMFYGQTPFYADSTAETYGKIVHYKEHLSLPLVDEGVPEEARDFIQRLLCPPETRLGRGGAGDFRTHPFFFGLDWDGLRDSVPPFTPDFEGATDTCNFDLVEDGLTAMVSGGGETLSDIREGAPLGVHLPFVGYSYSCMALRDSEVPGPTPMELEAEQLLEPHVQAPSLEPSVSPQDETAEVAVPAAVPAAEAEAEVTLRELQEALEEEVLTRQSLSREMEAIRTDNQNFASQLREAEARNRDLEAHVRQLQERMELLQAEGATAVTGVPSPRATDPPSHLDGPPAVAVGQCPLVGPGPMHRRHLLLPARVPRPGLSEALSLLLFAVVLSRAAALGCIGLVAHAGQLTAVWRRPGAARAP
How it was run: as §1

[9] = target: T9, ~100 representative kinases (Homo sapiens, UniProt Q15375); details: Protein EPHA7; average of three replicates
T9 construct: Recombinant protein kinase domains with a concentration of 2 μM
How it was run: as §1

[10] = target: T10, ~100 representative kinases (Homo sapiens, UniProt Q5VT25); details: Protein CDC42BPA; average of three replicates
T10 construct: Recombinant protein kinase domains with a concentration of 2 μM
T10 sequence (Q5VT25 whole entry, the tested form may be a part): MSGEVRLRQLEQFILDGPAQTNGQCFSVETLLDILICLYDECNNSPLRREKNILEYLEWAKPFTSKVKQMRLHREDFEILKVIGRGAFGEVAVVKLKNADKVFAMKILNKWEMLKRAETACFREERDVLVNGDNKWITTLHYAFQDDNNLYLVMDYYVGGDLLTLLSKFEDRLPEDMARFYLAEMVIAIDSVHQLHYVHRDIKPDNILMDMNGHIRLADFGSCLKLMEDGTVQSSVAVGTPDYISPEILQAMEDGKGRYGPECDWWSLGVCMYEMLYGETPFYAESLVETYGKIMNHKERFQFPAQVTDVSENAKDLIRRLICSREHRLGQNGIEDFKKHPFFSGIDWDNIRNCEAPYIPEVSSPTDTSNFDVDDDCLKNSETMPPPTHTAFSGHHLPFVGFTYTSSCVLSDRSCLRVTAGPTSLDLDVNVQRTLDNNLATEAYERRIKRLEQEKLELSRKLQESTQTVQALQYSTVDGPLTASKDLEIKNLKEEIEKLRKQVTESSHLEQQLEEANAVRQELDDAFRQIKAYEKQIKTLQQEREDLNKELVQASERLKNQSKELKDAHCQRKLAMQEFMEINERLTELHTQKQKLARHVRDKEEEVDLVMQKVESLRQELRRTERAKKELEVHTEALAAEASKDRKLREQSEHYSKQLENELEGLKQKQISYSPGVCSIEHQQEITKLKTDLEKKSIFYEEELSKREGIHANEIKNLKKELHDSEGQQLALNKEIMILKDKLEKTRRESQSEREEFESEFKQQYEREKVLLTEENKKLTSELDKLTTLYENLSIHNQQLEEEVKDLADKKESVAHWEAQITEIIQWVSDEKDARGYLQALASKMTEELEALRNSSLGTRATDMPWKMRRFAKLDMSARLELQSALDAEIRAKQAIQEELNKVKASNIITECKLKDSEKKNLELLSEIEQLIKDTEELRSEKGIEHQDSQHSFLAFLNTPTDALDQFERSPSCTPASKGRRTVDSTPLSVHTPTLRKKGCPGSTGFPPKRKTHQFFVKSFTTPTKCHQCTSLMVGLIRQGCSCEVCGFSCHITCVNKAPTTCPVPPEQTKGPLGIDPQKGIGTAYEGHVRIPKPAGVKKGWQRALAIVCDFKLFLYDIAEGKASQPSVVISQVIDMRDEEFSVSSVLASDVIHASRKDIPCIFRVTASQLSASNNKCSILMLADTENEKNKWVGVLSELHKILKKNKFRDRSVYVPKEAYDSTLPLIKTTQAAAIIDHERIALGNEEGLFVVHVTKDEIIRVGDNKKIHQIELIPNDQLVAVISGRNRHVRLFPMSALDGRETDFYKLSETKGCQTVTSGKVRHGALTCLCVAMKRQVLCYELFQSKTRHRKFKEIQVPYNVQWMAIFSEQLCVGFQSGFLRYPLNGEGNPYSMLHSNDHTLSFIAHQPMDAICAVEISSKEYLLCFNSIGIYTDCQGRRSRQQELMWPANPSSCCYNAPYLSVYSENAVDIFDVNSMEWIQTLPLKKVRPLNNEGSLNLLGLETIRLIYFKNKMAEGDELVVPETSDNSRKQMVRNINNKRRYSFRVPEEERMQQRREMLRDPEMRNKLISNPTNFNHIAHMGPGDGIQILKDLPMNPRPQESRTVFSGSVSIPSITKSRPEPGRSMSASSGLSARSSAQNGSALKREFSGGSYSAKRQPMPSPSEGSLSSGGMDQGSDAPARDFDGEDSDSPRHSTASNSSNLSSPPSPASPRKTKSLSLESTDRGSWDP
How it was run: as §1

[11] = target: T11, ~100 representative kinases (Homo sapiens, UniProt Q8TDX7); details: protein NEK7; average of three replicates
T11 construct: Recombinant protein kinase domains with a concentration of 2 μM
T11 sequence (Q8TDX7 whole entry, the tested form may be a part): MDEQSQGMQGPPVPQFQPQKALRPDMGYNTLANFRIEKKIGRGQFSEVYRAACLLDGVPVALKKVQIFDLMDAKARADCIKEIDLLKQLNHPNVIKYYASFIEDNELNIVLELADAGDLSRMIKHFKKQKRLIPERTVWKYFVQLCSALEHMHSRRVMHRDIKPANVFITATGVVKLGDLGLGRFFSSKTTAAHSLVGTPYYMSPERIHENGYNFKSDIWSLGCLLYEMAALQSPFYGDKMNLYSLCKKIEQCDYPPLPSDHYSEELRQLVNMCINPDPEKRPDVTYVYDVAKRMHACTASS
How it was run: as §1

[12] = target: T12, ~100 representative kinases (Homo sapiens, UniProt Q96SB4); details: Protein SRPK1; DSF; average of three replicates
T12 construct: Recombinant protein kinase domains with a concentration of 2 μM
T12 sequence (Q96SB4 whole entry, the tested form may be a part): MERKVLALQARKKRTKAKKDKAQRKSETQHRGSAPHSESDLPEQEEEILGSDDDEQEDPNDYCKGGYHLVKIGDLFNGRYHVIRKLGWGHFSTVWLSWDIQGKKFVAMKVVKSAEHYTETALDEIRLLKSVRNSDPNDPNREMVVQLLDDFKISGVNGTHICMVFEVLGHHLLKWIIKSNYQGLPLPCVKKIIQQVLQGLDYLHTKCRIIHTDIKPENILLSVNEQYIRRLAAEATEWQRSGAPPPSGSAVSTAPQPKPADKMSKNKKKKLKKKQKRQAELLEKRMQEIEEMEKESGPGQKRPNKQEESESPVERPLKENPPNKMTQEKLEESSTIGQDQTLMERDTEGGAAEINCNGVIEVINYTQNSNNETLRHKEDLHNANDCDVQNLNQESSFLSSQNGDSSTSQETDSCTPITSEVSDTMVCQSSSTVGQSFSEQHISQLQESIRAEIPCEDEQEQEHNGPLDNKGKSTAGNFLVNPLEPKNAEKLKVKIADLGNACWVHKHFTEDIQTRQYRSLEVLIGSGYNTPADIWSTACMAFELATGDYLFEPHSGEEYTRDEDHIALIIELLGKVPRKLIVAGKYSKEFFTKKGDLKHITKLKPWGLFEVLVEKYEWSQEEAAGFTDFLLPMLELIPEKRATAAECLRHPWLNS
How it was run: as §1

[13] = target: T13, ~100 representative kinases (Homo sapiens, UniProt Q9UPE1); details: Protein SRPK3; DSF; average of three replicates
T13 construct: Recombinant protein kinase domains with a concentration of 2 μM
T13 sequence (Q9UPE1 whole entry, the tested form may be a part): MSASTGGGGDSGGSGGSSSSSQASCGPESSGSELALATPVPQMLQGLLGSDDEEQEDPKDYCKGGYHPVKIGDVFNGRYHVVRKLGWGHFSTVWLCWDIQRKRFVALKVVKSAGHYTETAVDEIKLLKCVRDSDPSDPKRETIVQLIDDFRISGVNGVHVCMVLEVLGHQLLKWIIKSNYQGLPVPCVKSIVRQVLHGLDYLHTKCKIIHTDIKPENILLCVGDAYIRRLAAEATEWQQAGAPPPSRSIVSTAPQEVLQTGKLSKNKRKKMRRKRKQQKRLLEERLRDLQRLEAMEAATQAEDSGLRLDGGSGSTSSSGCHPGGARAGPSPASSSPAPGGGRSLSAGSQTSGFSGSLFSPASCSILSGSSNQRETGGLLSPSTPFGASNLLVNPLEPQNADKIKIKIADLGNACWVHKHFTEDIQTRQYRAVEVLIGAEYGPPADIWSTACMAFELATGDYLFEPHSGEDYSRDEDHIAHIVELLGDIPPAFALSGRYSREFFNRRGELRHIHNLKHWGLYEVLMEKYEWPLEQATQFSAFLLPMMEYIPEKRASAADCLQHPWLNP
How it was run: as §1

Structure (SMILES) | dTm [1] | dTm [2] | dTm [3] | dTm [4] | dTm [5] | dTm [6] | dTm [7] | dTm [8] | dTm [9] | dTm [10] | dTm [11] | dTm [12] | dTm [13]
O=C(Nc1cccc(-c2c[nH]c3ncnc(N4CCOCC4)c23)c1)C1(C(=O)Nc2cc(Br)c(F)cc2F)CC1 [Compound 25] | 6.39 K | 3.02 K | 0.13 K | -0.23 K | -1.75 K | 1.86 K | 3.32 K | 0.24 K | 2.86 K | -0.57 K | 0.26 K | 4.56 K | 3.28 K
O=C(Nc1cccc(-c2c[nH]c3ncnc(N4CCOCC4)c23)c1)C1(C(=O)Nc2ccc(F)c(Br)c2F)CC1 [Compound 26] | 3.83 K | 3.21 K | -0.0329 K | -0.13 K | -2.66 K | 2.22 K | 3.74 K | -0.0242 K | 1.95 K | -0.44 K | -0.33 K | 4.06 K | 2.55 K
O=C(Nc1cc(F)cc(Br)c1)C1(C(=O)Nc2cccc(-c3c[nH]c4ncnc(N5CCOCC5)c34)c2)CC1 [Compound 27] | 4.77 K | 4.42 K | 0.75 K | 0.35 K | -1.53 K | 1.63 K | 2.02 K | -0.12 K | 2.33 K | 0.59 K | -0.08 K | -0.47 K | 0.82 K
CC(C)(C)c1cc(NC(=O)Nc2cccc(-c3c[nH]c4ncnc(N5CCOCC5)c34)c2)n(-c2ccc3ncccc3c2)n1 [Compound 28] | 4.51 K | 14.79 K | 4.85 K | 7.10 K | 0.00214 K | 12.33 K | 10.62 K | -2.53 K | 1.92 K | -0.65 K | 2.34 K | 16.05 K | 9.26 K
Cc1ccc(-n2nc(C(C)(C)C)cc2NC(=O)Nc2cccc(-c3c[nH]c4ncnc(N5CCOCC5)c34)c2)cc1 [Compound 29] | 4.13 K | 0.00 K | 0.52 K | 5.51 K | -0.60 K | 12.63 K | -0.19 K | -2.09 K | 2.68 K | -0.10 K | -0.81 K | 11.63 K | 6.09 K
Cc1ccc(-n2nc(C(C)(C)C)cc2NC(=O)Nc2cccc(-c3c[nH]c4nc(Cl)nc(N5CCOCC5)c34)c2)cc1 [Compound 30] | 1.21 K | 6.34 K | -1.12 K | 0.05 K | 0.13 K | 7.13 K | -0.31 K | -0.04 K | 0.22 K | 0.77 K | -1.05 K | 4.87 K | 3.14 K
CC(=O)N1CCN(c2nc(Cl)nc3[nH]cc(-c4cccc(NC(=O)Nc5cc(C(C)(C)C)nn5-c5ccc(C)cc5)c4)c23)CC1 [Compound 31] | 0.55 K | 6.63 K | -2.10 K | 0.41 K | -0.27 K | 7.62 K | -0.09 K | -0.66 K | 0.34 K | 0.50 K | -0.91 K | 7.78 K | 3.85 K
CCSc1nc(NC)c2c(-c3cccc(NC(=O)Nc4cc(C(C)(C)C)nn4-c4ccc(C)cc4)c3)c[nH]c2n1 [Compound 32] | 0.53 K | 1.05 K | -0.46 K | 0.61 K | -0.0148 K | 1.15 K | -0.15 K | 0.38 K | 0.38 K | 0.69 K | -0.18 K | 0.80 K | 1.35 K
COc1cc(C(=O)N2CCOCC2)c(F)cc1Nc1nc(N(C)C)c2c(Cl)c[nH]c2n1 [Compound 36] | 3.22 K | 6.29 K | 1.88 K | 0.60 K | -0.44 K | 0.33 K | -0.36 K | 0.30 K | 2.27 K | -0.93 K | -0.65 K | 3.22 K | 1.84 K
COc1cc(S(C)(=O)=O)ccc1Nc1nc(N(C)C)c2c(Cl)c[nH]c2n1 [Compound 37] | -0.19 K | 3.62 K | 1.40 K | 0.09 K | -0.63 K | -0.32 K | -0.14 K | 0.0114 K | 0.12 K | -0.18 K | -0.25 K | 0.39 K | 0.46 K
